Results: a compilation of properties of binary mixtures (doi:10.1021/acs.jced.0c00801)

Test: xn = mol fraction of the nth substance listed
Details: 101 kPa

CCO + CC[n+]1ccn(C)c1.N#C[S-]
speed of sound (283.15 K, x2 = 0): 1194.7 m/s | viscosity (283.15 K, x2 = 0): 1.44 mPa·s | speed of sound (313.15 K, x2 = 0): 1092.2 m/s | viscosity (313.15 K, x2 = 0): 0.83 mPa·s | speed of sound (323.15 K, x2 = 0): 1059.1 m/s | viscosity (323.15 K, x2 = 0): 0.7 mPa·s

CC[n+]1ccn(C)c1.N#C[S-] + CCO
speed of sound (283.15 K, x1 = 0.0504): 1281.9 m/s | viscosity (283.15 K, x1 = 0.0504): 1.93 mPa·s | speed of sound (283.15 K, x1 = 0.1001): 1345.1 m/s | viscosity (283.15 K, x1 = 0.1001): 2.34 mPa·s | speed of sound (283.15 K, x1 = 0.2012): 1466.4 m/s | viscosity (283.15 K, x1 = 0.2012): 3.49 mPa·s | speed of sound (283.15 K, x1 = 0.3003): 1560.9 m/s | viscosity (283.15 K, x1 = 0.3003): 4.8 mPa·s | speed of sound (283.15 K, x1 = 0.3945): 1641 m/s | viscosity (283.15 K, x1 = 0.3945): 6.72 mPa·s | speed of sound (283.15 K, x1 = 0.5007): 1711 m/s | viscosity (283.15 K, x1 = 0.5007): 9.41 mPa·s | speed of sound (283.15 K, x1 = 0.6016): 1768.2 m/s | viscosity (283.15 K, x1 = 0.6016): 12.82 mPa·s | speed of sound (283.15 K, x1 = 0.7018): 1805.7 m/s | viscosity (283.15 K, x1 = 0.7018): 16.95 mPa·s | speed of sound (283.15 K, x1 = 0.951): 1875.9 m/s | viscosity (283.15 K, x1 = 0.951): 34.19 mPa·s | speed of sound (283.15 K, x1 = 1): 1887.6 m/s | viscosity (283.15 K, x1 = 1): 38.41 mPa·s | speed of sound (293.15 K, x1 = 0.0504): 1249.4 m/s | viscosity (293.15 K, x1 = 0.0504): 1.58 mPa·s | speed of sound (293.15 K, x1 = 0.1001): 1314.4 m/s | viscosity (293.15 K, x1 = 0.1001): 1.91 mPa·s | speed of sound (293.15 K, x1 = 0.2012): 1438.1 m/s | viscosity (293.15 K, x1 = 0.2012): 2.88 mPa·s | speed of sound (293.15 K, x1 = 0.3003): 1534 m/s | viscosity (293.15 K, x1 = 0.3003): 3.84 mPa·s | speed of sound (293.15 K, x1 = 0.3945): 1614.9 m/s | viscosity (293.15 K, x1 = 0.3945): 5.3 mPa·s | speed of sound (293.15 K, x1 = 0.5007): 1685.5 m/s | viscosity (293.15 K, x1 = 0.5007): 7.24 mPa·s | speed of sound (293.15 K, x1 = 0.6016): 1743.3 m/s | viscosity (293.15 K, x1 = 0.6016): 9.63 mPa·s | speed of sound (293.15 K, x1 = 0.7018): 1781.1 m/s | viscosity (293.15 K, x1 = 0.7018): 12.52 mPa·s | speed of sound (293.15 K, x1 = 0.8045): 1813.9 m/s | viscosity (293.15 K, x1 = 0.8045): 16.42 mPa·s | speed of sound (293.15 K, x1 = 0.951): 1851.7 m/s | viscosity (293.15 K, x1 = 0.951): 23.87 mPa·s | speed of sound (293.15 K, x1 = 1): 1863.4 m/s | viscosity (293.15 K, x1 = 1): 26.31 mPa·s | speed of sound (303.15 K, x1 = 0.1001): 1284.3 m/s | viscosity (303.15 K, x1 = 0.1001): 1.59 mPa·s | speed of sound (303.15 K, x1 = 0.3003): 1507.4 m/s | viscosity (303.15 K, x1 = 0.3003): 3.14 mPa·s | speed of sound (303.15 K, x1 = 0.3945): 1589.2 m/s | viscosity (303.15 K, x1 = 0.3945): 4.29 mPa·s | speed of sound (303.15 K, x1 = 0.5007): 1660.4 m/s | viscosity (303.15 K, x1 = 0.5007): 5.73 mPa·s | speed of sound (303.15 K, x1 = 0.6016): 1718.9 m/s | viscosity (303.15 K, x1 = 0.6016): 7.51 mPa·s | speed of sound (303.15 K, x1 = 0.7018): 1757 m/s | viscosity (303.15 K, x1 = 0.7018): 9.54 mPa·s | speed of sound (303.15 K, x1 = 0.8045): 1790 m/s | viscosity (303.15 K, x1 = 0.8045): 12.35 mPa·s | speed of sound (303.15 K, x1 = 0.8971): 1813.9 m/s | viscosity (303.15 K, x1 = 0.8971): 15.08 mPa·s | speed of sound (303.15 K, x1 = 1): 1839.7 m/s | viscosity (303.15 K, x1 = 1): 19.03 mPa·s | speed of sound (313.15 K, x1 = 0.1001): 1254.6 m/s | viscosity (313.15 K, x1 = 0.1001): 1.34 mPa·s | speed of sound (313.15 K, x1 = 0.2012): 1382.8 m/s | viscosity (313.15 K, x1 = 0.2012): 1.93 mPa·s | speed of sound (313.15 K, x1 = 0.3003): 1481.3 m/s | viscosity (313.15 K, x1 = 0.3003): 2.63 mPa·s | speed of sound (313.15 K, x1 = 0.3945): 1563.9 m/s | viscosity (313.15 K, x1 = 0.3945): 3.56 mPa·s | speed of sound (313.15 K, x1 = 0.5007): 1635.8 m/s | viscosity (313.15 K, x1 = 0.5007): 4.67 mPa·s | speed of sound (313.15 K, x1 = 0.8045): 1766.5 m/s | viscosity (313.15 K, x1 = 0.8045): 9.58 mPa·s | speed of sound (313.15 K, x1 = 0.951): 1804.6 m/s | viscosity (313.15 K, x1 = 0.951): 13 mPa·s | speed of sound (323.15 K, x1 = 0.0504): 1155 m/s | viscosity (323.15 K, x1 = 0.0504): 0.94 mPa·s | speed of sound (323.15 K, x1 = 0.1001): 1225.4 m/s | viscosity (323.15 K, x1 = 0.1001): 1.14 mPa·s | speed of sound (323.15 K, x1 = 0.2012): 1355.8 m/s | viscosity (323.15 K, x1 = 0.2012): 1.64 mPa·s | speed of sound (323.15 K, x1 = 0.3003): 1455.6 m/s | viscosity (323.15 K, x1 = 0.3003): 2.24 mPa·s | speed of sound (323.15 K, x1 = 0.3945): 1539.2 m/s | viscosity (323.15 K, x1 = 0.3945): 3 mPa·s | speed of sound (323.15 K, x1 = 0.5007): 1611.5 m/s | viscosity (323.15 K, x1 = 0.5007): 3.91 mPa·s | speed of sound (323.15 K, x1 = 0.6016): 1671.5 m/s | viscosity (323.15 K, x1 = 0.6016): 4.97 mPa·s | speed of sound (323.15 K, x1 = 0.8045): 1743.5 m/s | viscosity (323.15 K, x1 = 0.8045): 7.66 mPa·s | speed of sound (323.15 K, x1 = 0.8971): 1767.8 m/s | viscosity (323.15 K, x1 = 0.8971): 9.05 mPa·s | speed of sound (323.15 K, x1 = 1): 1793.9 m/s | viscosity (323.15 K, x1 = 1): 11.1 mPa·s
